This note sets out measurements from patent US20240247035A1, “STAPLED ANTIMICROBIAL PEPTIDES (STAMPS) AND USES THEREOF” (Lytica Therapeutics, Inc., priority 2021, published 2024).

Converted amounts (≈) assume the structure as drawn. Bridge positions count the residues as written; N and C are the ends. Square brackets hold non-standard residues; d marks the D form. Peptide text beside a SMILES is read from it. Phe(4-tBu) = CC(C)(C)c1ccc(C[C@H](N)C(=O)O)cc1; S5 = C=CCCC[C@](C)(N)C(=O)O

Data set [1] is described as follows: 90 minute cytotoxicity assay (LDH release), renal toxicity. The format is cell-based. The note with it: human. In a few lines:
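RPTEC in growth-factor-supplemented MEM were exposed overnight-plated to serial dilutions of StAMPs (from 5 mg/mL water stock) or vehicle for 90 min at 37 °C. Released LDH in medium was measured with LDH reagent for 10 min, absorbance at 490 nm.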
(In general: LDH leaks from cells whose membrane has failed.)

Data set [2] can be described thus: 48 hours cytotoxicity assay (CellTiter-Glo), liver toxicity. The format is cell-based. The following applies: human. In a few lines:
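HepG2 cells (EMEM, 10% FBS) attached 4 h, then exposed to serial dilutions of StAMPs (from 5 mg/mL water stock) or vehicle for 48 h at 37° C. Viability read by CellTiter-Glo luminescence after 10 min at room temperature.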
For orientation: Cellular ATP, detected with luciferase, serves as a proxy for viable cell number.

One may read the IC50 as the point on the concentration scale where inhibition reaches its midpoint.

`CC[C@H](C)[C@H](NC(=O)[C@H](CCCCN)NC(=O)[C@H](CCCCN)NC(=O)CNC(=O)[C@H](CCCCN)NC(=O)[C@]1(C)CCCC=CCCC[C@](C)(NC(=O)CN)C(=O)N[C@@H](CCCCN)C(=O)N[C@@H](CO)C(=O)N[C@@H](CCCCN)C(=O)N1)C(=O)N[C@@H](CCCCN)C(=O)N[C@@H](CC(N)=O)C(=O)N[C@@H](CC(C)C)C(=O)N[C@@]1(C)CCCC=CCCC[C@@](C)(C(=O)N[C@@H](CCCCN)C(=O)N[C@@H](CC(N)=O)C(N)=O)NC(=O)CNC(=O)[C@H](CO)NC(=O)[C@H](Cc2ccc(C(C)(C)C)cc2)NC1=O` [compound 20] (H-G[S5]KSK[S5]KGKKIKNL[S5][Phe(4-tBu)]SG[S5]KN-NH2; staple 2-6, 15-19) had an IC50 at 90 min in data set [1] of 46 µg/mL (≈ 19 µM). Also, in data set [2], 29 µg/mL (≈ 12 µM) corresponded to half-maximal inhibition (IC50 at 48 hours).
As for `CC[C@H](C)[C@H](NC(=O)[C@H](CCCCN)NC(=O)[C@H](CCCCN)NC(=O)CNC(=O)[C@H](CCCCN)NC(=O)[C@]1(C)CCCC=CCCC[C@](C)(NC(=O)CN)C(=O)N[C@@H](Cc2ccccc2)C(=O)N[C@@H](CO)C(=O)N[C@@H](CCCCN)C(=O)N1)C(=O)N[C@@H](CCCCN)C(=O)N[C@@H](CCCCN)C(=O)N[C@@H](CC(C)C)C(=O)N[C@@]1(C)CCCC=CCCC[C@@](C)(C(=O)N[C@@H](CCCCN)C(=O)NCC(N)=O)NC(=O)CNC(=O)[C@H](CO)NC(=O)[C@H]([C@@H](C)CC)NC1=O` [compound 29] (H-G[S5]FSK[S5]KGKKIKKL[S5]ISG[S5]KG-NH2; staple 2-6, 15-19), the IC50 at 90 min in data set [1] came out at 27 µg/mL (≈ 11.7 µM). In addition, the IC50 at 48 hours in data set [2] stood at 22 µg/mL (≈ 9.55 µM).
With `CC[C@H](C)[C@H](NC(=O)[C@]1(C)CCCC=CCCC[C@](C)(NC(=O)[C@H](CCCCN)NC(=O)[C@H](CCCCN)NC(=O)CNC(=O)[C@H](CCCCN)NC(=O)[C@]2(C)CCCC=CCCC[C@](C)(NC(=O)CN)C(=O)N[C@@H](Cc3ccccc3)C(=O)N[C@@H](CO)C(=O)N[C@@H](CCCCN)C(=O)N2)C(=O)N[C@@H](CCCCN)C(=O)N[C@@H](CC(N)=O)C(=O)N[C@@H](CC(C)C)C(=O)N1)C(=O)N[C@@H](CO)C(=O)NCC(=O)N[C@@H](CC(C)C)C(=O)N[C@@H](CCCCN)C(=O)NCC(N)=O` [compound 35] (H-G[S5]FSK[S5]KGKK[S5]KNL[S5]ISGLKG-NH2; staple 2-6, 11-15), the IC50 at 90 min in data set [1] stood at 27 µg/mL (≈ 11.8 µM). Besides, in data set [2], the IC50 at 48 hours came out at 23 µg/mL (≈ 10 µM).
